One molecule from publication PMC9863901, “CX08005, a Protein Tyrosine Phosphatase 1B Inhibitor, Attenuated Hepatic Lipid Accumulation and Microcirculation Dysfunction Associated with Nonalcoholic Fatty Liver Disease” (Pharmaceuticals, 2023) can be followed below.

In this test the target is T1, Protein tyrosine phosphatase 1B (PTP1B) (Homo sapiens, UniProt P18031).
T1 construct: gene PTPN1; recombinant human His-PTP1B protein
T1 sequence (P18031 1-435): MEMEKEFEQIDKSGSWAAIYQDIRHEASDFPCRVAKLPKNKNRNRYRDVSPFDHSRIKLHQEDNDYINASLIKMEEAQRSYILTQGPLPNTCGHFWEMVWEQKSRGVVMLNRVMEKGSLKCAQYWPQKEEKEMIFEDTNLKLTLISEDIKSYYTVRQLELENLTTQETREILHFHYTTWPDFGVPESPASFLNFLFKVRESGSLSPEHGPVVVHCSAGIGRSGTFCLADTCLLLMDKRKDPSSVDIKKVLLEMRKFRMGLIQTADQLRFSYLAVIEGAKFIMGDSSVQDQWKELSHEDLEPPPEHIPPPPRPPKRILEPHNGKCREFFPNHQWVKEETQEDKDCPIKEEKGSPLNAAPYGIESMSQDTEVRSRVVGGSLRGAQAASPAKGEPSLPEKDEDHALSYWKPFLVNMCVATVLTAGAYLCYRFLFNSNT
As to the kind of experiment: pNPP phosphatase assay with recombinant His-PTP1B, absorbance at […] nm. It counts as biochemical.

The IC50 is the point on the concentration scale where inhibition reaches its midpoint. In the case of `CCCCCCCCCCCCCCOc1ccccc1NC(=O)c1ccccc1C(=O)O` [CX08005], the IC50 worked out at 750 ± 70 nM.
